Test results published in publication PMC9887155, “Kinetics of cone specific G-protein signaling in avian photoreceptor cells” (Frontiers in Molecular Neuroscience, 2023).
Entries after “also recorded” stand apart in the source; their conditions may differ. Ends that are not written are not given here.

What was measured:
[1] = test system: Gtα/Giα chimera (cone specific G protein α-subunit); experiment: SPR interaction of LWO peptides with immobilized Gtα/Giα chimera; type: binding, European robin (Erithacus rubecula); details: for binding to Gtα/Giα (qualitative): immobilized Gtα/Giα, pH 7.4
Procedure: The peptides representing the cytoplasmic loops of LWO (Figure 1) were purchased from Genscript (Netherlands). Sequences of the peptides were deduced from genetic sequences of the European robin genome ([Dunn et al., 2021]). Two control peptides were ordered containing scrambled sequences of LWO2 and LWO3 assigned as LWO2-sc and LWO3-sc, respectively (Table 1). To the N-terminus of each peptide, a linker (CGAGA or CGAGAG) was added to allow for specific covalent coupling via cysteine. All peptides were ordered to a purity of >90% and contained no further N-terminal modifications. The C-terminus of peptides LWO-1-3 were amidated to simulate a continuation of the peptide chain, while LWO-4 was left unmodified to represent the opsin C-terminus. Quality control by LC–MS was performed by Genscript, and concentrations of the peptides were confirmed by UV–vis measurements.
We used a Gtα/Giα chimera to allow functional expression in E. coli according to previous attempts with bovine Gtα ([Skiba et al., 1996]). Cloning of the Gtα variants was performed by PCR mutagenesis of the plasmid described in [Görtemaker et al. (2022)]. In short, the construct contained an N-terminal 6x histidine tag and SUMO (Small Ubiquitin like MOdifier) protein (for metal affinity purification and subsequent tag cleavage) followed by the Gtα chimera. Truncation of 3 and 6 amino acids was performed using the primers 1 and 2 and 1 and 3, respectively. Sequences are available in Supplementary Table S1. The truncated variants were expressed following the same protocol as the full-length protein.
Purification of the Gtα/Giα chimera was performed as exactly described previously ([Görtemaker et al., 2022]). We used the same procedure for purification of the truncated Gtα variants, but we excluded the final size exclusion chromatography. Protein samples were analyzed by standard analytical techniques such as sodium dodecyl-sulfate polyacrylamide gel electrophoresis (SDS-PAGE) and protein quantification according to established procedures in the laboratory ([Elbers et al., 2018]).
Surface plasmon resonance (SPR) measurements were performed on a Biacore 3,000 (GE Healthcare now Cytiva). We followed the general operation principle that had been described before ([Koch, 2000]; [Komolov et al., 2009]). In the present work, we immobilized the non-myristoylated Gtα/Giα chimera or its truncated variants using CM5 sensor chips (GE Healthcare) for all applications exactly as previously described ([Görtemaker et al., 2022]). Immobilization densities of Gtα/Giα were 2.6–3.4 ng/mm^2. The truncated variants Gt-3AA and Gt-6AA bound to the senor chip surface at densities of 3.1–4.2 ng/mm^2. First, we studied the interaction processes by injection of peptides representing the cytoplasmic regions in LWO (Table 1). Two peptides made from the amino acids present in LWO2 and LWO3, but in scrambled order (Table 1), served as controls. We injected different concentrations (10, 50, 100, and 200 nM or alternatively: 10, 25, 45, 55, 75, and 100 nM) at a flow rate of either 25 μl/min or 50 μl/min in SPR running buffer (10 mM HEPES/NaOH, pH 7.4, 150 mM NaCl, 10 mM MgCl2, 0.005% Tween-20, 3.4 mM EDTA). In addition, we coated control surfaces with ubiquitin-like-protease 1 as previously described ([Görtemaker et al., 2022]). For kinetic investigation of LWO2 binding to Gtα/Giα, we injected different peptide concentrations in random order. Regeneration of the surface was performed with a basic-detergent cocktail adopted from [Andersson et al. (1999)] containing final concentrations of 12.5 mM of ethanolamine, Na2PO4, piperazine, and glycine set to a pH of 11.75, as well as containing 0.2% sodium dodecyl sulfate. Despite the relatively harsh conditions, regeneration was judged to be slightly incomplete. […] With the conditions used, reproducible data was still obtained. Sensorgrams were evaluated by nonlinear curve fitting applying the global fitting approach (BIAevaluation software 4.1, GE Healthcare). […]

Gtα/Giα chimera = experiment: FRET interaction of dansylated peptides with Gtα/Giα in solution; type: binding, European robin (Erithacus rubecula); details: excitation 280 nm; for decrease of fluorescence emission in the presence of Gtα/Giα: FRET, dansylated peptide and Gtα/Giα each 16.7 μM, GDP 10 μM, incubated on ice in the dark 30 min, pH 7.4; for fluorescence emission maximum: dansylated peptide 16.7 μM, 80 mM Hepes pH 7.4, 40 mM KCl, 150 mM NaCl, 10 mM MgCl2
Procedure: Interaction of the Gtα/Giα chimera with peptide LWO2 and the control peptide LWO2-sc was tested by Förster resonance energy transfer (FRET) measurements. We designed an experiment using fluorescence excitation at 280 nm of endogenous Trp residues in Gtα/Giα and peptide and emission of Trp fluorescence at 334 nm that excited the fluorescence dye 5-Dimethylamino-1-naphthalinsulfonyl chloride (dansyl chloride). The emission spectrum of dansyl chloride was recorded between 400 and 550 nm. For this purpose, we coupled dansyl chloride to free amino groups in LWO2 and LWO2-sc. Peptides were solved in H20 bidest (1 mg/ml) and 66 μl of a peptide solution were mixed with 50 μl borat buffer (0.1 M, pH 9.5). Twenty-five μL dansyl chloride (1 mg/ml in acetone) were added and the solutions were incubated at room temperature for 5 h in darkness. Afterwards, we separated non-reacted dansyl chloride, non-reacted peptides and covalently labeled LWO2 or LWO2-sc by reversed phase liquid chromatography (HPLC) using a LiChrospher® 100 RP-18 (5 μm) column (Merck, Germany) in a Hitachi Primaide HPLC system. The column was equilibrated in 0.1% trifluoro-acetic acid (v/v) in H2O bidest. Separation was achieved by applying a gradient from 0.1% trifluoro-acetic acid (v/v) in H2O bidest to 100% acetonitrile with 0.1% trifluoro-acetic acid (v/v) in 55 min. Peaks were detected at 280 nm and the area was used to calculate the coupling yield that was at 84–97% for both peptides. FRET measurements employing the FRET pair intrinsic tryptophan and attached dansyl were performed with a fluorescence spectrometer from photon Technology International. The basic operation principle was essentially as described before ([Behnen et al., 2009]; [Scholten and Koch, 2011]) using the following modifications. Shortly before recording the spectrum, the dansylated LWO2 (or LWO2-sc) containing fraction of the HPLC elution was diluted in fluorescence buffer (80 mM Hepes pH 7.4, 40 mM KCl, 150 mM NaCl, 10 mM MgCl2) at a final concentration of 16.7 μM. After adding the G protein, the mixtures were incubated on ice in the dark for 30 min. During the measurements with the Gtα/Giα, it was present in GDP-bound conformation ([GDP] = 10 μM). The excitation wavelength was set to 280 nm and the emission spectrum was recorded from 400 to 550 nm. Recording and analysis of the data was performed using Photon Technology International software package FELIX32.

CGAGA-GSKSQRARAEQVETAQAKAEISVEK [LWO3-sc]
binding to Gtα/Giα (qualitative) ([1]; peptide 100 nM): did not indicate a binding process

CGAGAG-AIRAVAAQQKESESTQKAEKEVSR [LWO3, peptide representing the third cytoplasmic loop of European robin LWO]
binding to Gtα/Giα (qualitative) ([1]; peptide 100 nM): slight decrease in RU and a kind of recovery phase; also recorded: did not detect any interaction | positive response during subsequent buffer flow ([1]; peptide 100 nM, buffer flow after injection, decreased over time): ca. 10 RU | binding to Gtα/Giα (qualitative), 200 nM ([1]; peptide 200 nM, Supplementary Figure S1): no specific binding process occurred

CGAGAG-NRQFRNCILQLFGKKVDDGSEVSTSRTEVSSVSNSSGS [LWO4, peptide representing the opsin C-terminus of European robin LWO]
binding to Gtα/Giα (qualitative) ([1]; peptide 100 nM): did not indicate a binding process

CGAGA-TAKFKKLRHPLNWI [LWO1, peptide representing a cytoplasmic loop of European robin long wavelength opsin]
binding to Gtα/Giα (qualitative) ([1]; peptide 100 nM): did not indicate a binding process

dansyl-LWO2: LWO2 with dansyl chloride coupled to free amino groups (CGAGAWERWFVVCKPFGNIKFDGK-NH2; cysteine pairing not given here; also: dansyl coupled to free amino groups)
decrease of fluorescence emission in the presence of Gtα/Giα (Gtα/Giα chimera): 14,000 relative fluorescence counts | fluorescence emission maximum (Gtα/Giα chimera): 510 nm

dansyl-LWO2-sc: LWO2-sc with dansyl chloride coupled to free amino groups (CGAGAFRVKDGWINPGKFEVWCKF; cysteine pairing not given here; also: dansyl coupled to free amino groups)
decrease of fluorescence emission in the presence of Gtα/Giα (Gtα/Giα chimera): 9,000 relative fluorescence counts | fluorescence emission maximum (Gtα/Giα chimera): 516 nm

CGAGA-FRVKDGWINPGKFEVWCKF [LWO2-sc]
binding to Gtα/Giα (qualitative) ([1]; peptide 100 nM): slight decrease in resonance units indicating no binding signal | fluorescence emission of label-free peptide (control) (Gtα/Giα chimera; label-free peptide alone or with Gtα/Giα): No fluorescence emission was also observed
